Assay [1] has as its target T1, TOP2B (Homo sapiens, UniProt Q02880). Briefly: DNA cleavage assay. The format is biochemical. Conditions: co-treatment with 200 µM etoposide; 1, 100, 200 µM. On the set-up: full-length human TOP2A and TOP2B protein (TopoGEN and Inspiralis respectively); purchased Inspiralis HTB205. As for the experimental part: The reactions were incubated in 37C for 30 min and stopped by adding 2 µl of 10% SDS and 1 µl of 250 mM of EDTA, followed by the addition of 50 µg/ml of proteinase K at 45C for 30 min. The reaction was then resolved by electrophoresis on a 1% agarose gel containing […] ethidium bromide in TAE buffer at 60 V. DNA bands were visualized using a gel imager (Gel Doc™ EZ System) and quantified by using the Image Studio™ Lite Quantification Software.
Target sequence in this assay (Q02880 whole entry): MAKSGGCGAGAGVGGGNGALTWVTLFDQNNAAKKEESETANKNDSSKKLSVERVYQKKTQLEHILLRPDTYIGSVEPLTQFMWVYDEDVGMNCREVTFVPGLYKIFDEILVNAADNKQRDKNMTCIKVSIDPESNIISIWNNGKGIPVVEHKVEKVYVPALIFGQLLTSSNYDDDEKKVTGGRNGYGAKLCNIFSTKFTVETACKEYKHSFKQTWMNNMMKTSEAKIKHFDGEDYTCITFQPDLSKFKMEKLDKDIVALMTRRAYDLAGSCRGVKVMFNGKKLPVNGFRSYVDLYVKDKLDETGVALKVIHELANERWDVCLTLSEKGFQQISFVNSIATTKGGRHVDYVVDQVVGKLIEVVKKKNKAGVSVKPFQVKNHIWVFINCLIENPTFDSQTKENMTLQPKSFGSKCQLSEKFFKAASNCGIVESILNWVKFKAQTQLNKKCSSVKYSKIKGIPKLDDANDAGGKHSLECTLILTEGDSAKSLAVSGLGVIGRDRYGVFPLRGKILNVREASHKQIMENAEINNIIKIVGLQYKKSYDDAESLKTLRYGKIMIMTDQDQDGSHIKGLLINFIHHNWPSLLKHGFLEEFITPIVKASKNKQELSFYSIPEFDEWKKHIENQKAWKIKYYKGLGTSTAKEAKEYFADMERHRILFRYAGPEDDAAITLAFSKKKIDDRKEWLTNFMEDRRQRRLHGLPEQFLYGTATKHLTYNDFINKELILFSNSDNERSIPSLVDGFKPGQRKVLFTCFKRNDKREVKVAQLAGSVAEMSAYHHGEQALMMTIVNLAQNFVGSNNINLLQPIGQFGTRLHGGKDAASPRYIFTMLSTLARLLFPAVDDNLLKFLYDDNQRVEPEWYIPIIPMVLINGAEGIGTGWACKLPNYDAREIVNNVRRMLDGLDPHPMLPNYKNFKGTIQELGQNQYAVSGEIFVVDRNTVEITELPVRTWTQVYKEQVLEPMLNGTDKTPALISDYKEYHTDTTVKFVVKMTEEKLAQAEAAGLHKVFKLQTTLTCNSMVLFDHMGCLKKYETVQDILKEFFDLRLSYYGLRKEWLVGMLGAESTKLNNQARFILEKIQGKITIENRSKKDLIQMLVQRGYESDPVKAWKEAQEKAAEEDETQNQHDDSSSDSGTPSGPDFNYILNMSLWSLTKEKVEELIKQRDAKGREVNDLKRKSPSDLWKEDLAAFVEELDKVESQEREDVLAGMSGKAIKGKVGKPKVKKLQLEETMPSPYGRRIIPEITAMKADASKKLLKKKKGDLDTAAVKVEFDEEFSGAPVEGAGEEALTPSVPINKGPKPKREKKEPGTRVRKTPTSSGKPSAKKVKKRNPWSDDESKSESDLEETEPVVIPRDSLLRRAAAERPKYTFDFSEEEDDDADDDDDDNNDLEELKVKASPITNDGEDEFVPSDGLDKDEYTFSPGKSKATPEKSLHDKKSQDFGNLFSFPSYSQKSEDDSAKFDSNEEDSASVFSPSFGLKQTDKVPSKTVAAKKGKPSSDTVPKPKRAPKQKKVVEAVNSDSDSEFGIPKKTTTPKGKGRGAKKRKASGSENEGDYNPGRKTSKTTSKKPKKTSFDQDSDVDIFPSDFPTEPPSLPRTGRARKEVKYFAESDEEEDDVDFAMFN

In assay [2] the target is T1, TOP2B. Briefly: Chromatin fractionation assay. The conditions noted are these: K562 cells, 0, 1, 20 µM, 24 hours. On the set-up: endogenous in cells; host or cells: K562 (the thermal shift text says HeLa, the legend says K562); K562 for chromatin fractionation. In kind it is cell-based. The method, then: (§1) In the thermal shift assays, cells were treated with vehicle or T60 for 1 h and split into equal aliquots to be heated at 37 to 46°. Protein lyses were collected to perform immunoblotting assays with TOP2 antibodies (Abcam 12318, Santa Cruz sc-13059 & sc-365071). Our chromatin fractionation assays followed the protocol as previously described (Méndez & Stillman, 2000; Wysocka, Reilly, & Herr, 2001). Briefly, K562 cells (4 × 10 ([7]) cells/ml) were collected and re-suspended in buffer A (10 mM HEPES [pH 7.9], 10 mM KCl, 1.5 mM MgCl2, 0.34 M sucrose, 10% glycerol, 1 mM DTT, and protease inhibitor cocktail), before Triton X-100 was added to final concentration at 0.1%. Cells were then incubated on ice for 10 min, and nuclei were collected by centrifugation at speed of 1,300g for 4 min at 4°C. The nuclei were then washed once with buffer A and then incubated with buffer B (3 mM EDTA, 0.2 mM EGTA, 1 mM DTT, and protease inhibitor cocktail [ROCHE]) for 30 min in ice. Insoluble chromatin was collected by centrifugation at 1,700g for 4 min at 4°C, and washed once with buffer B. Chromatin associated proteins were extracted by incubation with Buffer C [500 mM Tris-HCl (pH 6.8), 500 mM NaCl, and protease inhibitor cocktail (ROCHE)] followed by brief sonication. The supernatant was collected to perform immunoblotting assays with TOP2 antibodies as we have described ([51]–[53]).
Target sequence in this assay (Q02880 2-1626 limits assumed): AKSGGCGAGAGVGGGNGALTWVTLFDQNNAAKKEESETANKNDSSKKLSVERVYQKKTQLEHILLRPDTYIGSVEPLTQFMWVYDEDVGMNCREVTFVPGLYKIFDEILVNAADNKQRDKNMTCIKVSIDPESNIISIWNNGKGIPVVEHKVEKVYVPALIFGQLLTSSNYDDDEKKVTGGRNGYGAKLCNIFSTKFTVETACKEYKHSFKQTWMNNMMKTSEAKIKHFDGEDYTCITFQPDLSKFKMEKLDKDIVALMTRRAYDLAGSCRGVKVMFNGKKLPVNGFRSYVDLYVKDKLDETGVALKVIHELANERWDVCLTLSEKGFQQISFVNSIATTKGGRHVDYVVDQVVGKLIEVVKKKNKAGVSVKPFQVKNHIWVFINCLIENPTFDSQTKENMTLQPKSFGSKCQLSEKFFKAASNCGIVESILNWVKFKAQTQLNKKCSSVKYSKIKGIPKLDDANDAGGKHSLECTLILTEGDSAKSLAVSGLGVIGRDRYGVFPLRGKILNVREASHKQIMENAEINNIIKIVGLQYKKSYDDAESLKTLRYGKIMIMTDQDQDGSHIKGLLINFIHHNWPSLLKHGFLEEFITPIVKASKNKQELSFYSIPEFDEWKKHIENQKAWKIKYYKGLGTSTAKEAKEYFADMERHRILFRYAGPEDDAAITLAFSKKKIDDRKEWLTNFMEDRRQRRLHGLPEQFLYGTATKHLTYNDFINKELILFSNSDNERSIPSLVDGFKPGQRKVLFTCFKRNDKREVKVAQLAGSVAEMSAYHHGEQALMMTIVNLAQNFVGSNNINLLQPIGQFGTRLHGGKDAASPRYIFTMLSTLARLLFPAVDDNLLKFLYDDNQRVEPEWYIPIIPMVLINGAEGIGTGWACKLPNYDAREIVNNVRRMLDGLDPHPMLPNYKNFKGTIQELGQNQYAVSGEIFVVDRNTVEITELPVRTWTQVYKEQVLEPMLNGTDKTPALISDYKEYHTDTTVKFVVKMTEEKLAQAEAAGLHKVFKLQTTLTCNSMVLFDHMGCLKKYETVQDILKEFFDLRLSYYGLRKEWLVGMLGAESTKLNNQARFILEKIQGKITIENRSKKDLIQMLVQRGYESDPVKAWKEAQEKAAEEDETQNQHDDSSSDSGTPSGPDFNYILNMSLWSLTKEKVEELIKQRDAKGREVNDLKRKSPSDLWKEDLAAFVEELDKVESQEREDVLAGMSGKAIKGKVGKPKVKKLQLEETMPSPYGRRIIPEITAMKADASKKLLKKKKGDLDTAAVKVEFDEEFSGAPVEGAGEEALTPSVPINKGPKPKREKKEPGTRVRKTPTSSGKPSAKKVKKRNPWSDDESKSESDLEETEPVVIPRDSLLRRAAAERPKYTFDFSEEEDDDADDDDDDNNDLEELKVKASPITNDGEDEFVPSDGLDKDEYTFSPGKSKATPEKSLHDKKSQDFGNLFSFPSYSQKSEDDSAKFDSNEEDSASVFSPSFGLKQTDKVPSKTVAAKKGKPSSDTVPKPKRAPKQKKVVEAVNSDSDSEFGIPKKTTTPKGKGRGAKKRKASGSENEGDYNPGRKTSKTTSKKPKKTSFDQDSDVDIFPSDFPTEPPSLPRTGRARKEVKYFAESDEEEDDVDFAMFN

Assay [3] addresses TOP2A (Homo sapiens, UniProt P11388). Briefly: Chromatin fractionation assay. The conditions noted are these: K562 cells, 0, 1, 20 µM, 24 hours. On the set-up: endogenous in cells; host or cells: K562 (the thermal shift text says HeLa, the legend says K562); K562 for chromatin fractionation. The format is cell-based. As for the experimental part:
as §1

The subject of assay [4] is AR-v7. As to the kind of experiment: Probasin- and PSA-luciferase reporter in 293T cells. The format is cell-based. The conditions noted are these: 0-20 µM. Background: In a reporter assay the amount or activity of a reporter protein is the signal.
Assay [5] deals with T2, full-length human TOP2A (Homo sapiens, UniProt P11388).
T2 construct: full-length human TOP2A and TOP2B protein (TopoGEN and Inspiralis respectively); purchased TopoGEN TG1001 (human TOP2 assay kit)
As to the kind of experiment: EMSA with full-length protein. The format is binding. Conditions: 200 µM; 2 µM protein, 300 nM 5ZRF oligo. The method, then: (§2) EMSA followed the standard protocols as we and others described with minor modifications ([54]–[56]). The double-strand DNA oligo, 5ZRF (AGCCGAGCTGCAGCTCGGCT labeled by IRDye700) was purchased from IDT (Coralville, USA). Human TOP2 (431–1193), TOP2A (TopoGEN) or TOP2B (Inspiralis) proteins were incubated with 300 nM of 5ZRF oligo in a standard 20 µl EMSA reaction in a reaction buffer containing 20 mM HEPES-NaOH, pH 7.4, 2 mM DTT, 3 mM MgCl2, 0.05% NP-40, protease inhibitors, and 0.1 µg poly[dI:dC]. After incubation for 30 min at 37C, reactions were loaded onto 4% non-denatured polyacrylamide gel in 0.5× TBE buffer. The DNA oligo bands were visualized by using the Li-Cor Odyssey 9120 Infrared Imaging System.

Assay [6] deals with T3, full-length human TOP2B (Homo sapiens, UniProt Q02880).
T3 construct: full-length human TOP2A and TOP2B protein (TopoGEN and Inspiralis respectively); purchased Inspiralis HTB205
As to the kind of experiment: EMSA with full-length protein. In kind it is binding. Conditions: 200 µM; 2 µM protein, 300 nM 5ZRF oligo. The method, then: as §2
On the technique in general: A gel shift assay detects complexes by their altered migration in electrophoresis.

Assay [7] relates to DU145. Briefly: Cell viability, MTS assay. Conditions: 0-20 µM; compared to AR-positive PCa cell lines. The format is cell-based. The method, then: (§3) Cell proliferation rates were measured by using the CellTitre 96 AqueousOne kit (Promega) and bromodeoxyuridine (BrdU) assay kit (Millipore) according to the manufacturer’s protocol as we have described ([51]). Cytotoxicity was evaluated by using the commercial kit (CAT# 8078, ThermoFisher). Culture media was collected and used to measure lactate dehydrogenase (LDH) levels by a colorimetric method following the manufacture’s protocol (ThermoFisher). Cell cycling was assessed by using BrdU incorporation into S-phase DNA by using the APC BrdU flow kit (BD Pharmingen; Franklin Lakes, New Jersey) according to the manufacturer’s protocol. 1 mM of BrdU was added to cells and incubated for 6 h. Cells were incubated with anti-BrdU antibody and stained with 7-AAD before processing the cells for flow cytometry ([52]). Immunoblotting assays followed the standard protocol as we have reported ([51]–[53]).
A general note: Tetrazolium assays rely on reduction of a dye to a coloured formazan, in cell work by metabolically active cells.

The subject of assay [8] is BPH1. Briefly: Cell viability, MTS assay. Conditions: 0-20 µM; compared to AR-positive PCa cell lines. In kind it is cell-based. The method, then:
as §3

The test system of assay [9] is PC3. As to the kind of experiment: Cell viability, MTS assay. The format is cell-based. The conditions noted are these: 0-20 µM; compared to AR-positive PCa cell lines. As for the experimental part: as §3
Assay [10] relates to LNCaP95. Briefly: Cell viability, MTS assay. In kind it is cell-based. Conditions: 0-20 µM. As for the experimental part:
as §3

For assay [11], the system named is U937 leukemia cells. Briefly: Cell viability, MTS assay. The format is cell-based. The conditions noted are these: T60 alone, up to 20 µM. As for the experimental part:
as §3

For assay [12], the system named is MR49F. As to the kind of experiment: Cell viability, MTS assay. Conditions: 0-20 µM. In kind it is cell-based. As for the experimental part: as §3
Assay [13] concerns NCCIT testicular cells. As to the kind of experiment: Cell viability, MTS assay. The format is cell-based. The conditions noted are these: T60 alone, up to 20 µM. The method, then:
as §3

Assay [14] concerns LNCaP. Briefly: Cell viability, MTS assay. The format is cell-based. The conditions noted are these: 0-20 µM. As for the experimental part: as §3
The subject of assay [15] is AR. As to the kind of experiment: Probasin- and PSA-luciferase reporter in 293T cells. In kind it is cell-based. Conditions: 0-20 µM.

From paper PMC7883873, “Discovery of New Catalytic Topoisomerase II Inhibitors for Anticancer Therapeutics” (Frontiers in Oncology, 2021) come the findings set out here.

TOP2A, sequence (P11388 whole entry): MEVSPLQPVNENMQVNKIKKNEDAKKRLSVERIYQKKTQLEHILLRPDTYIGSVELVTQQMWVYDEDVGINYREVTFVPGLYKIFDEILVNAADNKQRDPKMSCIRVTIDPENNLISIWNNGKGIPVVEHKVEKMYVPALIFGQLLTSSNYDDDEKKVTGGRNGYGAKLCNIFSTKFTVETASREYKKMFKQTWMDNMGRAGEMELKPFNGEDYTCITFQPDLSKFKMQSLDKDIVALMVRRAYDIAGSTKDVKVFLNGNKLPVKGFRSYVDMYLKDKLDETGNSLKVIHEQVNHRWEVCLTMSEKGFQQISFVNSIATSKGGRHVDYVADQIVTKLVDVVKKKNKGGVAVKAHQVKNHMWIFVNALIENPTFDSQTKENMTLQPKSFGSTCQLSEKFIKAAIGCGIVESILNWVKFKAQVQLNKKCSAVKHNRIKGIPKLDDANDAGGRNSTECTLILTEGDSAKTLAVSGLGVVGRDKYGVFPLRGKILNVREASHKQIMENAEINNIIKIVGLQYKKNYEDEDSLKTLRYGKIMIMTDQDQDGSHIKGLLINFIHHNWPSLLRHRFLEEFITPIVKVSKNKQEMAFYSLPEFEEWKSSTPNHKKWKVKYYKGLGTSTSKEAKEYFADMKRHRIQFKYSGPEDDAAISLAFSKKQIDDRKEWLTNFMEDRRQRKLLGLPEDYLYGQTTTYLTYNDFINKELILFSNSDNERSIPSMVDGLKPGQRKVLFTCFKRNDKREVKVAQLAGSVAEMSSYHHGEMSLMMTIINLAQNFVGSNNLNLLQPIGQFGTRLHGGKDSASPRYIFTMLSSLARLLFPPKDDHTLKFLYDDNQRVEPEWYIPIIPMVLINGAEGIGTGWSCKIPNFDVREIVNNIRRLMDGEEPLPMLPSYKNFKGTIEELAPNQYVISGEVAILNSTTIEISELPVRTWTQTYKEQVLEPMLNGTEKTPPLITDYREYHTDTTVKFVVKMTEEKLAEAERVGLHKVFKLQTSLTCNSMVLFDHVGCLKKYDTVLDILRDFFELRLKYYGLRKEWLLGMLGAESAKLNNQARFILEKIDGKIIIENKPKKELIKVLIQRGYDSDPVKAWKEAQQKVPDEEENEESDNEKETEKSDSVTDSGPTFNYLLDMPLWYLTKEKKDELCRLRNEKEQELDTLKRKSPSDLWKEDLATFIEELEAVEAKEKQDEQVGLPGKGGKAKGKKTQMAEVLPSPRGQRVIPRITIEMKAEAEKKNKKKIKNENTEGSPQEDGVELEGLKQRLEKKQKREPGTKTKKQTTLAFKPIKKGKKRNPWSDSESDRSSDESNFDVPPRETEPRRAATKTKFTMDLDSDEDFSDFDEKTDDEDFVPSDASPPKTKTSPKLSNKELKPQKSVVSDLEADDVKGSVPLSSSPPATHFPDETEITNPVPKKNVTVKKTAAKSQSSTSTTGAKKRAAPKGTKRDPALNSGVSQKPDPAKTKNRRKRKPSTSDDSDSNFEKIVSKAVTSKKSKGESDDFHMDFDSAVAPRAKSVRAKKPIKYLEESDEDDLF
T2 sequence (P11388 whole entry): as above
T3 sequence (Q02880 whole entry): as the sequence (Q02880 whole entry) above

For `O=C(Nc1ccc(Nc2ccccc2)cc1)c1ccc[nH]c1=S` [T60], in assay [1], the “Prevention of etoposide-induced DNA cleavage, TOP2B” value is recorded as “prevented”. The “TOP2B association with chromatin” value in assay [2] was “reduced”. In addition, the “TOP2A association with chromatin” value in assay [3] is “reduced”. Besides, the “Luciferase activities driven by probasin and PSA promoters, AR-v7” value in assay [4] is recorded as “inhibited luciferase activities”. For the same compound, the “Interruption of mobility retarded band, full-length TOP2A” value in assay [5] is recorded as “interrupted”. Also, the “Interruption of mobility retarded band, full-length TOP2B” value in [6] is given as “interrupted”. The “Cell viability, DU145” value in assay [7] was “to a much less extent”. The “Cell viability, BPH1” value in assay [8] is reported as “to a much less extent”. The “Cell viability, PC3” value in [9] is reported as “to a much less extent”. Moreover, the “Cell viability, LNCaP95” value in assay [10] is reported as “strongly suppressed”. Also, in [11], the “Inhibition of cell growth, U937” value was “completely inhibited”. Moreover, in [12], the “Cell viability, MR49F” value was “strongly suppressed”. Moreover, the “Inhibition of cell growth, NCCIT” value in [13] stood at 50%. For the same compound, the “Cell viability, LNCaP” value in [14] is listed as “strongly suppressed”. The “Luciferase activities driven by probasin and PSA promoters, AR” value in assay [15] is recorded as “inhibited luciferase activities”.
